This is an account of results in paper PMC6309729 (Biochemistry, 2011).

Assay type in all cases: biochemical
The target in assay [1] is T1, cpSRP54 (Arabidopsis thaliana, UniProt P37107).
T1 sequence (P37107 76-564): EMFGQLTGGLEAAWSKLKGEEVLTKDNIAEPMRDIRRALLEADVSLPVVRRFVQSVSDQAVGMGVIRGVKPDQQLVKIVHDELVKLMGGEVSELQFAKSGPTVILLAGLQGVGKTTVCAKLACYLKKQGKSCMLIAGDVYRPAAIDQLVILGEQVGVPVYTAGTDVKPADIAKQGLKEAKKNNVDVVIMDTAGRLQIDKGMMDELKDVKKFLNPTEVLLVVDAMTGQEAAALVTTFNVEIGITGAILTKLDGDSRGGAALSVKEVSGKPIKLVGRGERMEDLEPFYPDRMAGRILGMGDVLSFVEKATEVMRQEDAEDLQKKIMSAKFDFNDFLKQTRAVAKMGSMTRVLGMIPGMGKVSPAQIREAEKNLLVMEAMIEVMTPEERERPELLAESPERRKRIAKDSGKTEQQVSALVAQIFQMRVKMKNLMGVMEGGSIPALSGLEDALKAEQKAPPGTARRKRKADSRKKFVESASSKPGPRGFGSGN
Briefly: basal GTP binding / GTPase assay. The following applies: 25 °C, pH 7.5, Mg(OAc)2; cpSRP54 alone.

In assay [2] the target is T2, cpFtsY (Arabidopsis thaliana, UniProt O80842).
T2 sequence (O80842 41-366): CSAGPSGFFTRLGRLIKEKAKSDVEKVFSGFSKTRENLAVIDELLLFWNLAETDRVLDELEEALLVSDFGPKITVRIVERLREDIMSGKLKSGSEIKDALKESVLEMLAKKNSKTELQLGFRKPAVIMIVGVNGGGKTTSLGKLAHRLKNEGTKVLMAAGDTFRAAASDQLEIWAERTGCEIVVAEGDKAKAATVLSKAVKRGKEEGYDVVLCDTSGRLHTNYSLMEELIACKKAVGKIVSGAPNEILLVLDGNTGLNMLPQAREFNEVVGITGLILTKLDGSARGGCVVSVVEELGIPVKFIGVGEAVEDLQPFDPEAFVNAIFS
The experiment in a line: basal GTP binding / GTPase assay. As to conditions: 25 °C, pH 7.5, Mg(OAc)2; cpFtsY alone.

In assay [3] the target is T3, cpSRP54•cpFtsY complex (Arabidopsis thaliana, UniProt O80842+P37107).
T3 sequence (P37107 76-564): T1 sequence (P37107 76-564)
T3 sequence (O80842 41-366): T2 sequence (O80842 41-366)
Briefly: reciprocally stimulated multiple-turnover GTPase assay. The following applies: 25 °C, pH 7.5, 100 μM GTP, 100 nM cpSRP54, varied cpFtsY.

On to `Nc1nc2c(ncn2[C@@H]2O[C@H](COP(=O)(O)OP(=O)(O)OP(=O)(O)O)[C@@H](O)[C@H]2O)c(=O)[nH]1` [GTP], for which the “basal GTP binding / GTPase assay” value is “basal GTP binding and hydrolysis activity (Tables S3 and S4 of Supporting Information, respectively)” in assay [1]; “basal GTP binding and hydrolysis activity (Tables S3 and S4 of Supporting Information, respectively)” in assay [2]. In assay [3], the “reciprocally stimulated multiple-turnover GTPase assay” value was “reciprocally stimulated GTPase reaction between cpFtsY and cpSRP”.
